Literature values in patent publication US20220331342A1, “TREATMENT OF TRAUMATIC ENCEPHALOPATHY BY FIBROBLASTS AND THERAPEUTIC ADJUVANTS” (FIGENE, LLC, priority 2019, published 2022).

Assays:
[1] = test system: mixed spinal cord (SC) cultures; settings: excitotoxins
[2] = test system: SOD1 mutant mice; settings: single therapy

Row | Compound | neuronal survival on treatment with MAPK inhibitors [1] | also measured
1 | CN(C)c1ccc(O)c2c1C[C@H]1C[C@H]3[C@H](N(C)C)C(O)=C(C(N)=O)C(=O)[C@@]3(O)C(O)=C1C2=O [Minocycline, minocycline] |  | first-pass metabolism when absorbed from the human gastrointestinal tract: substantial first-pass metabolism
2 | COc1cccc(-c2cc(=O)c3ccccc3o2)c1N [PD98059] | not | 
3 | Nc1nc2ccc(OC(F)(F)F)cc2s1 [Riluzole, riluzole] |  | onset of disease [2]: without affecting
4 | C[S+]([O-])c1ccc(-c2nc(-c3ccncc3)c(-c3ccc(F)cc3)[nH]2)cc1 (stereo not shown) [SB203580] | increased neuronal survival | 
